# According to patent US9051310B2, “Nicotinamide derivative or salt thereof” (FUJIFILM Corporation, priority 2011, dated 2015):
# Assays:
# [1] = biological target: T1, glutathione S-transferase (GST)-linked full-length human Syk protein (Homo sapiens, UniProt P43405); assay: Syk enzyme assay; type: biochemical; conditions: 0.83 nM Syk, time-resolved fluorescence; read-out: IC50 of Syk-inhibitory activity
# T1 construct: glutathione S-transferase (GST)-linked full-length human Syk protein; purchased Carna Biosciences; host or cells: Baculovirus expression system
# In short: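 Phosphotyrosine on a biotin-peptide substrate (0.5 μM) was read by time-resolved fluorescence at 615 and 665 nm with Eu-anti-pTyr antibody and APC-streptavidin after 1 h EDTA stop.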
# [2] = tested on: THP-1 cells (TNFα secretion on human IgG-coated plate); assay: TNFα generation assay; type: cell-based; conditions: IFN-γ differentiated THP-1 cells, 7 hours, AlphaLISA, read-out: IC50 of TNFα generation inhibitory activity
# In short: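 Secreted TNFα was measured by AlphaLISA after 7 h of culture on human IgG-coated wells (coating at 10 μg/ml), with 5×10^4 cells/well. Before plating, the cells had been treated with compound for 30 min at room temperature. The cells were macrophage-like THP-1, produced by a 2-day exposure to 10 ng/ml IFN-γ.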
SMILES,IC50 [1] [nM],IC50 [2] [nM]
"Cn1nc(N2CCCC2)c2cc(Nc3nc(N[C@@H]4CCCC[C@@H]4N)c(F)cc3C(N)=O)ccc21 [Example 2-428, 6-(((1R,2S)-2-aminocyclohexyl)amino)-5-fluoro-2-((1-methyl-3-(pyrrolidin-1-1)-1H-indazol-5-yl)amino)nicotinamide]",10 to 50,130 to 200
"NC(=O)c1cc(F)c(N[C@@H]2CCCC[C@@H]2N)nc1Nc1cccc(Cl)c1 [Example 2-439, 6-(((1R,2S)-2-aminocyclohexyl)amino)-2-((3-chlorophenyl)amino)-5-fluoronicotinamide]",< 10,65 to 130
"NC(=O)c1cc(F)c(N[C@@H]2CCCC[C@@H]2N)nc1Nc1cccc(F)c1 [Example 2-440, 6-(((1R,2S)-2-aminocyclohexyl)amino)-5-fluoro-2-((3-fluorophenyl)amino) nicotinamide]",< 10,130 to 200
"NC(=O)c1cc(F)c(N[C@@H]2CCCC[C@@H]2N)nc1Nc1ccc(F)cc1 [Example 2-441, 6-(((1R,2S)-2-aminocyclohexyl)amino)-5-fluoro-2-((4-fluorophenyl)amino) nicotinamide]",< 10,130 to 200
"CC(=O)c1cccc(Nc2nc(N[C@@H]3CCCC[C@@H]3N)c(F)cc2C(N)=O)c1 [Example 2-442, 2-((3-acetylphenyl)amino)-6-(((1R,2S)-2-aminocyclohexyl)amino)-5-fluoronicotinamide]",< 10,65 to 130
"COCCn1ncc2cc(Nc3nc(N[C@H](c4cccc(F)c4)[C@H](C)N)c(F)cc3C(N)=O)ccc21 [Example 2-454, 6-(((1R,2S)-2-amino-1-(3-fluorophenyl)propyl)amino)-5-fluoro-2-((1-(2-methoxyethyl)-1H-indazol-5-yl)amino)nicotinamide]",< 10,65 to 130
"Cc1cnn(-c2cncc(Nc3nc(N[C@@H]4CCCC[C@@H]4N)c(F)cc3C(N)=O)c2)c1 [Example 2-472, 6-(((1R,2S)-2-aminocyclohexyl)amino)-5-fluoro-2-((5-(4-methyl-1H-pyrazol-1-yl)pyridin-3-yl)amino)nicotinamide]",< 10,< 65
"CC[C@@H](Nc1nc(Nc2cccc(C)c2)c(C(N)=O)cc1F)[C@H](C)N [Example 2-474, 6-(((2S,3R)-2-aminopentan-3-yl)amino)-5-fluoro-2-(m-tolylamino)nicotinamide]",< 10,130 to 200
"CC[C@@H](Nc1nc(Nc2cccc(-n3nccn3)c2)c(C(N)=O)cc1F)[C@H](C)N [Example 2-475, 2-((3-(2H-1,2,3-triazol-2-yl)phenyl)amino)-6-(((2S,3R)-2-aminopentan-3-yl)amino)-5-fluoronicotinamide]",< 10,65 to 130
"CC[C@@H](Nc1nc(Nc2cccc(-n3ccnn3)c2)c(C(N)=O)cc1F)[C@H](C)N [Example 2-476, 2-((3-(1H-1,2,3-triazol-1-yl)phenyl)amino)-6-(((2S,3R)-2-aminopentan-3-yl)amino)-5-fluoronicotinamide]",< 10,65 to 130
"CC[C@@H](Nc1nc(Nc2ccc(C)c(C)c2)c(C(N)=O)cc1F)[C@H](C)N [Example 2-477, 6-(((2S,3R)-2-aminopentan-3-yl)amino)-2-((3,4-dimethylphenyl)amino)-5-fluoronicotinamide]",< 10,130 to 200

# The remaining lines, values ahead:
IC50 [1] [nM],IC50 [2] [nM],SMILES
< 10,130 to 200,"CCn1ncc2c(Nc3nc(N[C@H](C4CC4)[C@H](C)N)c(F)cc3C(N)=O)cc(F)cc21 [Example 2-372, 6-(((1R,2S)-2-amino-1-cyclopropylpropyl)amino)-2-((1-ethyl-6-fluoro-1H-indazol-4-yl)amino)-5-fluoronicotinamide]"
< 10,130 to 200,"COCCn1ncc2c(Nc3nc(N[C@@H]4CCCC[C@@H]4N)c(F)cc3C(N)=O)cc(F)cc21 [Example 2-374, 6-(((1R,2S)-2-aminocyclohexyl)amino)-5-fluoro-2-((6-fluoro-1-(2-methoxyethyl)-1H-indazol-4-yl)amino)nicotinamide]"
< 10,65 to 130,"COCCn1ncc2c(Nc3nc(N[C@H](C4CC4)[C@H](C)N)c(F)cc3C(N)=O)cc(F)cc21 [Example 2-377, 6-(((1R,2S)-2-amino-1-cyclopropylpropyl)amino)-5-fluoro-2-((6-fluoro-1-(2-methoxyethyl)-1H-indazol-4-yl)amino)nicotinamide]"
< 10,65 to 130,"CC[C@H](N)[C@@H](C)Nc1nc(Nc2cc(F)cc3c2cnn3CCOC)c(C(N)=O)cc1F [Example 2-378, 6-(((2R,3S)-3-aminopentan-2-yl)amino)-5-fluoro-2-((6-fluoro-1-(2-methoxyethyl)-1H-indazol-4-yl)amino)nicotinamide]"
< 10,65 to 130,CCn1ncc2cc(Nc3nc(N[C@H](c4ccccn4)[C@H](C)N)c(F)cc3C(N)=O)ccc21 [Example 2-381]
< 10,65 to 130,"C[C@H](N)[C@H](Nc1nc(Nc2cccc3ncccc23)c(C(N)=O)cc1F)C1CC1 [Example 2-404, 6-(((1R,2S)-2-amino-1-cyclopropylpropyl)amino)-5-fluoro-2-(quinolin-5-ylamino)nicotinamide]"
< 10,65 to 130,"CCn1ncc2cc(Nc3nc(N[C@H](c4ccccc4F)[C@H](C)N)c(F)cc3C(N)=O)ccc21 [Example 2-410, 6-(((1R,2S)-2-amino-1-(2-fluorophenyl)propyl)amino)-2-((1-ethyl-1H-indazol-5-yl)amino)-5-fluoronicotinamide]"
< 10,65 to 130,CCn1ncc2cc(Nc3nc(N[C@H](c4cccc(F)c4)[C@H](C)N)c(F)cc3C(N)=O)ccc21 [Example 2-413]
< 10,65 to 130,COc1cc(Nc2nc(N[C@H](c3cccc(F)c3)[C@H](C)N)c(F)cc2C(N)=O)cc(OC)n1 [Example 2-414]
< 10,< 65,CCn1ncc2cc(Nc3nc(N[C@H](c4cccs4)[C@H](C)N)c(F)cc3C(N)=O)ccc21 [Example 2-416]
< 10,65 to 130,"Cc1cccc(Nc2nc(N[C@@H]3CCCC[C@@H]3N)c(F)cc2C(N)=O)c1 [Example 2-434, 6-(((1R,2S)-2-aminocyclohexyl)amino)-5-fluoro-2-(m-tolylamino)nicotinamide]"
< 10,130 to 200,"Cc1ccc(Nc2nc(N[C@@H]3CCCC[C@@H]3N)c(F)cc2C(N)=O)cc1C [Example 2-436, 6-(((1R,2S)-2-aminocyclohexyl)amino)-2-((3,4-dimethylphenyl)amino)-5-fluoronicotinamide]"
< 10,65 to 130,"NC(=O)c1cc(F)c(N[C@@H]2CCCC[C@@H]2N)nc1Nc1cccc(-n2nccn2)c1 [Example 2-437, 2-((3-(2H-1,2,3-triazol-2-yl)phenyl)amino)-6-(((1R,2S)-2-aminocyclohexyl)amino)-5-fluoronicotinamide]"
< 10,< 65,"NC(=O)c1cc(F)c(N[C@@H]2CCCC[C@@H]2N)nc1Nc1cccc(-n2ccnn2)c1 [Example 2-438, 2-((3-(1H-1,2,3-triazol-1-yl)phenyl)amino)-6-(((1R,2S)-2-aminocyclohexyl)amino)-5-fluoronicotinamide]"
